Here are results for five compounds from patent publication US9011882B2, “Dimethylarginine dimethylaminohydrolase inhibitors and methods of use thereof” (The Board of Trustees of the Leland Stanford Junior …, priority 2012, dated 2015).

The structures appear in SMILES notation. pIC50: −log10 of the molar value. Entries after “also recorded” stand apart in the source; their conditions may differ.

Test [1] has as its system Lung fibroblasts from patients with IPF. Description: Sircol collagen assay, TGF-β stimulated IPF lung fibroblasts. Type of test: cell-based, human. Particulars: Omeprazole 50 or 100 μM; L-257 50 μM; A83-01 20 μM; 24 hours. On the procedure:
Cells were seeded at 4×10^4 cells/well in a 6-well plate (1.2 mL media per well) and incubated overnight at 37° C./5% CO2. The next day, the conditioned media was aspirated and the cells were rinsed with phosphate-buffered saline (PBS) prior to (fetal bovine) serum starving them for 2 hours followed by 22 hours low serum (0.1% fetal bovine serum; FBS) in order to synchronize them.
On day-3, the cells were stimulated with fully-supplemented media (containing 10% FBS) in the absence or presence of recombinant transforming growth factor-1 (TGF-β1) (at 10 ng/mL final conc) in the presence of a DDAH inhibitor (DDAHi; the proton pump inhibitor (PPI) lansoprazole at a final concentration of 20 μM) or vehicle for 24 hours.
The acid-soluble collagen content in each well was determined in the conditioned media using the Sircol collagen assay (Accurate Chemical and Scientific Corp; CLRS 1000) following the recommended protocol.
The amount of collagen in each well was estimated from a standard curve and the collagen content in each sample was normalized to total cellular protein from the respective well and was expressed as μg collagen per milligram of protein.
Lung fibroblasts were isolated from patients diagnosed with IPF according to International Standards. Isolated fibroblasts were seeded at 6×10^4 and synchronized the following day.
The acid-soluble collagen content was determined using the Sircol collagen assay (Accurate Chemical and Scientific Corp; CLRS 1000) following the recommended protocol.

Test [2] concerns Human lung epithelial cell line (A-549). Description: BrdU Cell Proliferation Assay, human alveolar epithelial cells. Particulars: FIG. 24. It is filed as cell-based. On the procedure: Cells were seeded at 5×10^3 cells/well in a 96-well plate (200 μL media per well) & incubated overnight at 37° C./5% CO2. The next day, the conditioned media was aspirated and the cells were PBS-rinsed prior to (fetal bovine) serum starving them for 2 hours followed by 22 hours low serum (0.1% FBS) in order to synchronize them.
On day-3, 2 hours before the end of the 24 hours low serum period, DDAH inhibitors (Proton pump inhibitors; PPIs) were added in a 100 μL solution of 0.1% FBS DMEM. The following DDAH inhibitors were used: Lansoprazole; Esomeprazole; and Rabeprazole. A “vehicle only” sample served as a “no DDAH” control. In addition, Media only (blank control) without cells, and Cells only (background control) were included in the assay. Two hours later, 100 μL of DMEM containing 10% FBS was added to each well in order to serum-stimulate (for 24 hours) the cells and make the total well content to 200 μL. Four hours prior to the end of the 24 hrs, 20 μL of 1:500 diluted Bromodeoxyuridine (BrdU) (diluted in fully-supplemented DMEM) was added to all wells except the “Cells only” control wells.
The incorporation of BrdU into newly synthesized DNA by actively proliferating cells was detected immunochemically using an Antibody directed against BrdU using the recommended protocol and the BrdU Cell Proliferation Assay kit (Millipore; Cat #2750). […]

Test [3] concerns mouse alveolar epithelial cell. Description: BrdU Cell Proliferation Assay, mouse alveolar epithelial cells. Type of test: cell-based. Particulars: mouse cell line, FIG. 25. From the text: A “vehicle only” sample served as a “no DDAH” control.
The subject of test [4] is human microvascular endothelial cells (HMEC-1). Description: Intracellular ADMA by ELISA in endothelial cells. It is filed as cell-based. Particulars: 20 μM, 24 hours, compared to vehicle control. On the procedure: (§1) First, human microvascular endothelial cells (HMEC-1; ATCC) were seeded in 75 cm^2 cell culture flasks and cultured in fully supplemented DMEM (Invitrogen cat #11995; supplemented with 10% fetal bovine serum (FBS), 4 mM HEPES; GIBCO 15630 and penicillin/streptomycin). The cells were incubated at 37° C./5% CO2 until ˜60% confluency. The cells were then washed with phosphate buffered saline (PBS) and plain DMEM (DMEM with no addition of serum or the other supplements) was mixed with esomeprazole (20 μM final concentration from 100 mM stock) and added to the cells. […] After ˜4 hrs of incubation, the media was aspirated from each flask and the cells were cultured in fully supplemented DMEM as described above and incubated at 37° C./5% CO2 for another 20 hrs. The serum was initially withdrawn due to the possibility that esomeprazole would interact with Cys containing serum proteins and fail to internalize at effective concentrations.
After 24 hrs, the cells were harvested. Total cellular protein was estimated as described and ADMA was measured by enzyme-linked immunosorbent assay (ELISA) following the manufacturer's recommendations; DLD Diagnostika, Hamburg, Germany).
as §1, with “FBS,” for “fetal bovine serum (FBS),”, “PBS” for “phosphate buffered saline (PBS)”, “PD 404” for “esomeprazole”, “conc” for “concentration”, “The serum was initially withdrawn due to the possibility that esomeprazole would interact with Cys containing serum proteins and fail to internalize at effective concentrations.” left out
After 24 hours, the cells were harvested. Total cellular protein was estimated as described and ADMA was measured by ELISA following the manufacturer's recommendations; DLD Diagnostika, Hamburg, Germany).
Background: An ELISA detects its analyte on a solid surface through an enzyme-linked reagent.

Test [5] deals with T1, human DDAH1 (Homo sapiens (Human), UniProt O94760). Description: Fluorimetric CPM assay of DDAH activity (SMTC substrate). It is filed as biochemical. On the procedure:
The activity of human DDAH1 was quantified using fluorimetric assay by incubating the enzyme with an artificial substrate S-methyl-thiocitrulline (SMTC). DDAH metabolizes SMTC into L-citrulline and methanethiol (CH3—SH). The thiol released from the reaction can be monitored fluorimetrically by adding 7-Diethylamino-3-(4-maleimidophenyl)-4-methylcoumarin (CPM).
The activity of human DDAH1 was quantified using fluorimetric assay by incubating the enzyme with an artificial substrate S-methyl-thiocitrulline (SMTC), as described in Example 1. DDAH metabolizes SMTC into L-citrulline and methanethiol (CH3—SH). The thiol released from the reaction can be monitored fluorimetrically by adding 7-Diethylamino-3-(4-maleimidophenyl)-4-methylcoumarin (CPM).
For the secondary assay, a fluorimetric assay that uses SMTC as a substrate was adapted. DDAH metabolizes SMTC into L-citrulline and methanethiol (CH3—SH). In brief, DDAH (30 nM final concentration) was mixed with SMTC (100 μM final concentration), CPM (50 μM final concentration) and screening buffer (containing a final concentration of 0.01% Triton-X100 and 1 mM EDTA). The reaction mix was added to black 384-well plates to validate primary hits that modulate DDAH activity. The release of CH3—SH was monitored fluorimetrically by adding 7-Diethylamino-3-(4-maleimidophenyl)-4-methylcoumarin (CPM) as described in Linsky (Linsky, T. & Fast, W. A continuous, fluorescent, high-throughput assay for human dimethylarginine dimethylaminohydrolase-1. J Biomol Screen 16, 1089-1097 (2011)).

For test [6], the target named is recombinant human DDAH1 (rhDDAH1) (Homo sapiens (Human), UniProt O94760). Description: Colorimetric L-citrulline assay of DDAH activity (ADMA substrate; high throughput screen and orthogonal validation). It is filed as biochemical. On the procedure: (§2) The enzymatic activity of DDAH was monitored using a colorimetric assay that detects product (L-citrulline) formation from the substrate ADMA. In brief, recombinant human DDAH1 (rhDDAH1) was mixed with ADMA in the presence of screening buffer in 384-well plates. Plates were incubated at 37° C. for 4 hours. Subsequently, color developing reagent (containing 2 volumes of Antipyrine and 1 volume of 2,3-Butanedione oxime reagents) was added and the plates were incubated at 60° C. for 90 min prior to spinning them at 1,500 rpm for 5 min. In this assay absorbance is proportional to the concentration of citrulline generated by DDAH, and was measured using an AnalystGT plate reader at 485 nm using a dichroic beamsplitter.
Chain of recombinant human DDAH1 (rhDDAH1) (O94760 whole entry): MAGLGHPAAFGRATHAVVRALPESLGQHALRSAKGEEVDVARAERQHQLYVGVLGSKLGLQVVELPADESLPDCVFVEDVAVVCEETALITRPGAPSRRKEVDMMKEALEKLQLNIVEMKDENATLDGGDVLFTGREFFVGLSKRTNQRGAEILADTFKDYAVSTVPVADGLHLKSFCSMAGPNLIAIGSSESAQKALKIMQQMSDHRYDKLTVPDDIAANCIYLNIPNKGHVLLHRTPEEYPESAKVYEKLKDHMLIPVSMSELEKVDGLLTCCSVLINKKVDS
as §2, with “ADMA, as described in Example 1.” for “ADMA.”, “antipyrine” for “Antipyrine”
The L-citrulline assay was based upon an original test-tube method developed by Prescott and Jones in 1969 (Prescott, L. M. & Jones, M. E. Modified methods for the determination of carbamyl aspartate. Anal Biochem 32, 408-419 (1969)), which was adapted and optimized for a microplate format. Subsequently, the activity of DDAH was quantified by detecting its conversion of ADMA to citrulline using the optimized protocol. The assay was scaled up to a 384-well format for high throughput chemical screening.
Over 130,000 small molecules deposited in the Stanford High-throughput Bioscience Center (HTBC) were screened using the enzymatic assay to identify chemicals that regulate DDAH activity. In brief, recombinant human DDAH1 (rhDDAH1) was mixed with ADMA in the presence of screening buffer in 384-well plates using a Staccato multidrop. Small molecules (100 nL each) were then added to the wells using a robotic arrayer to yield a final compound screening concentration of up to 50 μM. Plates were incubated at 37° C. for 4 hours. Subsequently, color developing reagent (containing 2 volumes of Antipyrine and 1 volume of 2,3-Butanedione oxime reagents) was added using Velocity 11 system and the plates were sealed using an automated plate sealer. Finally, color was developed by incubating the plates at 60° C. for 90 minutes prior to spinning them at 1,500 rpm for 5 minutes. In this assay absorbance is proportional to the concentration of citrulline generated by DDAH, and was measured using an AnalystGT plate reader at 485 nm using a dichroic beamsplitter. The signal-to-noise ratio of separation was calculated using an established formula in Zhang. (Zhang, J. H., Chung, T. D. & Oldenburg, K. R. A Simple Statistical Parameter for Use in Evaluation and Validation of High Throughput Screening Assays. J Biomol Screen 4, 67-73 (1999)).
In brief, various amounts of rhDDAH1 (0.1 to 10 μM) were incubated with various concentrations of ADMA (1 μM to 8 mM) for various time points (30 min to 10 h) at room temperature or 37° C. […] The reactions were stopped and color was developed as described above followed by incubation at 60° C. for 90 min. Absorbance, proportional to DDAH activity, was measured at 485 nm±20 nm. In order to screen the entire library, the biochemical properties of the assay were optimized, as described above. The technique was modified so as to reduce the number of steps and facilitate robotic handling and throughput. Subsequently, HTS was performed using 384-well plates. […]

Test [7] addresses T1, human DDAH1. Description: Time-dependence kinetics study of DDAH inhibition. It is filed as biochemical.
Where [8] appears, read: 50 μM, compared to vehicle control.

T1 sequence (O94760 whole entry): as above

As for `Cc1cccc(-c2nn(C(=S)Nc3ccccc3)cc2-c2ccnc3ccccc23)n1` [A83-01], the “TGF-β induced collagen synthesis” value in test [1] is on record as “reduced TGF-β induced collagen synthesis”.

Take `COCCNC(N)=NCCC[C@H](N)C(=O)O` [L-257]: the “incorporation of BrdU” value in test [2] and in test [3] was “reduced incorporation of BrdU” throughout. Further, the “TGF-β induced collagen synthesis” value in test [1] is given as “reduced TGF-β induced collagen synthesis”. Besides, in test [4], the “increase in intracellular ADMA” value was 68%.

Turning to `N=C1Sc2ccccc2C2=NCCCN12` [PD 404], at human DDAH1 [5] (setting [8]), the “inhibition of DDAH activity, CPM fluorometric assay” value is “directly inhibit DDAH activity; also recorded: inhibited DDAH activity significantly”. In addition, the “increase in intracellular ADMA” value in test [4] was roughly 84%. The “inhibition of DDAH activity, orthogonal colorimetric assay” value in test [6] (setting [8]) was “significantly inhibited DDAH activity”. The pIC50 in test [6] (high throughput screen of library copies (BMF-6, BMF-7, BMF-8, MicroSource, LOPAC), dose-dependent inhibition) was 5.06.

As for `O=C(O)c1cc[c]([Hg][Cl])cc1` [chloromercuribenzoate, 4-chloromercuribenzoic acid, reference compound], the “mode of inhibition in time-dependence kinetics” value at human DDAH1 [7] is “progressive inhibition”. For the same compound, on human DDAH1 [5] (fresh powders from vendors, vs vehicle), the “inhibition of DDAH activity, CPM fluorometric validation” value is given as “confirmed known DDAH inhibitors”.

In the case of `CC(=O)[O-].[Hg+][c]1ccccc1` [phenylmercuric acetate], on human DDAH1 [7], the “mode of inhibition in time-dependence kinetics” value is listed as “progressive inhibition”. The same compound had a pIC50 on human DDAH1 [5] greater than 6.11.

The term pIC50 denotes −log10 of the IC50, conventionally taken in molar units.
